Data as given in patent US9023843B2, “Antimicrobial compounds and methods of making and using the same” (Melinta Therapeutics, Inc., priority 2009, dated 2015).

Tested on: Eschericia coli strain ATCC25922
Assay: standard microdilution assay to determine minimum inhibitory concentrations (MICs)
Assay type: cell-based
Conditions: Escherichia coli, read-out: E. coli ATCC25922 MIC
Description: Minimum inhibitory concentrations (MICs) are determined by the microdilution method, typically in a final volume of 100 microliters, according to protocols outlined by The Clinical and Laboratory Standards Institute [CLSI; formerly the National Committee for Clinical Laboratory Standards (NCCLS)]. See CLSI: Methods for dilution antimicrobial susceptibility tests for bacteria that grow aerobically; approved standard-fifth edition. Wayne, Pa.: NCCLS; 2000. The assays can be also be performed in microtiter trays according to conventional methodologies as published by the CLSI. See CLSI. Methods for Dilution Antimicrobial Susceptibility Tests for Bacteria That Grow Aerobically; Approved Standard-Seventh Edition. CLSI Document M7-A7 [ISBN 1-56238-587-9] CLSI, 940 West Valley Road, Suite 1400, Wayne Pa. 19087-1898 USA, 2006).
The compounds of the present invention were tested for antimicrobial activity. The compounds were run against Eschericia coli strain ATCC25922 using a standard microdilution assay to determine minimum inhibitory concentrations (MICs). […] A “N/A” means that data is unavailable. It will be recognized by one skilled in the art that the compounds can be assessed against other bacterial organisms and that the presentation of data for activity against Eschericia coli is illustrative and in no way is intended to limit the scope of the present invention. The compounds of the present invention can be assayed against a range of other microorganisms depending upon the performance activity desired to be gathered. Furthermore, the “+”, “−”, and “N/A” representation and the selection of a cutoff value of 16 micrograms/ml is also illustrative and in no way is intended to limit the scope of the present invention.

Row | MIC [µg/mL] | Compound
1 | < 16 | CN(C)c1ncc(-c2ccc3c(c2)Nc2nc(=O)n(C4CCN(CCCNC(=N)N)CC4)cc2O3)cn1 [Compound 627]
2 | > 16 | NCCCNCc1ccc(-c2cn3c(=O)cc(-c4cc(F)c(F)cc4F)[nH]c3nc2=O)cc1 [Compound 362]
3 | > 16 | N=C(N)NCCCN1CCC(n2cc3c(nc2=O)Nc2cc(C(=O)NCCc4ccc(F)cc4)ccc2O3)CC1 [Compound 659]
4 | > 16 | N=C(N)NCCCN1CCCC(n2cc3c(nc2=O)Nc2cc(-c4ccc(C(F)(F)F)nc4)ccc2O3)CC1 (stereo not shown) [Compound 667]
5 | > 16 | NCCCN1CCC(n2cc3c(nc2=O)Nc2ccccc2O3)CC1 [Compound 528]
6 | < 16 | N=C(N)NCCCNC1CCC(n2cc3c(nc2=O)Nc2cc(C4CCN(C(=O)CN(Cc5ccc(F)c(F)c5)C5CCNCC5)CC4)ccc2O3)CC1 (stereo not shown) [Compound 753]
7 | > 16 | COc1cc(-c2cc(=O)n3cc(-c4ccc(CNCCCN)cc4)c(=O)nc3[nH]2)cc(OC)c1OC [Compound 379]
8 | < 16 | N=C(N)NCCCNC(=O)C1CCC(n2cc3c(nc2=O)Nc2cc(C4CCNCC4)ccc2O3)CC1 (stereo not shown) [Compound 1236]
9 | > 16 | NCCCNC1CCC(n2cc3c(nc2=O)Nc2cc(-c4ccc(C(F)(F)F)nc4)ccc2O3)CC1 (stereo not shown) [Compound 672]
10 | > 16 | NC[C@H]1CC[C@H](n2cc3c(nc2=O)Nc2c(OCCCN4CCNCC4)cccc2O3)CC1 [Compound 1441]
11 | > 16 | NCC1CCC(n2cc3c(nc2=O)Nc2cc(C4CCNCC4)ccc2O3)CC1 (stereo not shown) [Compound 1369]
12 | > 16 | Cc1ccc(CCCN(CCCc2ccc(C)o2)C2CCC(n3cc4c(nc3=O)Nc3cc(C5CCNCC5)ccc3O4)CC2)o1 (stereo not shown) [Compound 1198]
13 | > 16 | N=C(N)NCCCN1CCC(n2cc3c(nc2=O)Nc2cc(C(=O)NCCCN4CCOCC4)ccc2O3)CC1 [Compound 642]
14 | > 16 | N=C(N)NCCCCCN1CC[C@@H](n2cc3c(nc2=O)Nc2ccccc2O3)C1 [Compound 575]
15 | < 16 | N=C(N)NCCC(=O)N(CCCN)C1CCC(n2cc3c(nc2=O)Nc2cc(C4CCNCC4)ccc2O3)CC1 (stereo not shown) [Compound 1145]
16 | > 16 | NCCCNCc1ccc(-c2cn3c(=O)cc(-c4ccc(C(F)(F)F)cc4)[nH]c3nc2=O)cc1 [Compound 391]
17 | > 16 | N=C(N)NCCCN1CCC(n2cc3c(nc2=O)Nc2cc(C(=O)NCc4ccc(Br)cc4)ccc2O3)CC1 [Compound 638]
18 | > 16 | NC[C@H]1CC[C@H](n2cc3c(nc2=O)Nc2c(OCCNC(=O)NCc4ccccc4)cccc2O3)CC1 [Compound 4002c]
19 | > 16 | NC1CCC(Cn2cc3c(nc2=O)Nc2cc(C4CCNCC4)ccc2O3)CC1 (stereo not shown) [Compound 1368]
20 | > 16 | CN(C)c1ncc(-c2ccc3c(c2)Nc2nc(=O)n(C4CCN(CCCN)CC4)cc2O3)cn1 [Compound 614]
21 | > 16 | NCCCNCc1ccc(-c2cn3c(=O)cc(-c4ccc(Cl)c(Cl)c4)[nH]c3nc2=O)cc1 [Compound 390]
22 | > 16 | NCCCN1CCC(n2cc3c(nc2=O)Nc2cc(C(=O)NCCN4CCC[C@H](N)C4)ccc2O3)CC1 [Compound 798]

Row | MIC [µg/mL] | Compound
23 | < 16 | N=C(N)NCC(=O)N1CCC(c2ccc3c(c2)Nc2nc(=O)n(C4CCCN(CCCN)CC4)cc2O3)CC1 (stereo not shown) [Compound 832]
24 | > 16 | NCCCN1CCCC(n2cc3c(nc2=O)Nc2ccccc2O3)CC1 (stereo not shown) [Compound 598]
25 | < 16 | N=C(N)NCCCNC(=O)[C@H]1CC[C@H](n2cc3c(nc2=O)Nc2c(OCCN)cccc2O3)CC1 [Compound 4006c]
26 | > 16 | N=C(N)NCCCN1CCC(n2cc3c(nc2=O)Nc2cc(C(=O)NCCN4CCOCC4)ccc2O3)CC1 [Compound 669]
27 | > 16 | COc1ccc(-c2ccc3c(c2)Nc2nc(=O)n(C4CCN(CCCN)CC4)cc2O3)cc1F [Compound 615]
28 | > 16 | NCCCN1CCCC(n2cc3c(nc2=O)Nc2cc(C4CCN(C(=O)CCN)CC4)ccc2O3)CC1 (stereo not shown) [Compound 795]
29 | < 16 | N=C(N)NCCCN1CCCC(n2cc3c(nc2=O)Nc2cc(C(=O)N4CCC[C@H](N)C4)ccc2O3)CC1 (stereo partly shown) [Compound 950]
30 | > 16 | N=C(N)NCCCN1CCC(n2cc3c(nc2=O)Nc2cc(C(=O)Nc4cc(F)c(F)cc4F)ccc2O3)CC1 [Compound 685]
31 | > 16 | NCCCN1CCC(n2cc3c(nc2=O)Nc2cc(C4CCN(C(=O)CN(Cc5ccc(F)c(F)c5)C5CCNCC5)CC4)ccc2O3)CC1 [Compound 748]
32 | > 16 | NCCCNCc1ccc(-n2cc3c(nc2=O)Nc2ccc(-c4cnc(N5CCOCC5)nc4)cc2O3)cc1 [Compound 400]
33 | > 16 | NCCCNCc1ccc(-n2cc3c(nc2=O)Nc2cc(-c4cnc(N5CCOCC5)nc4)ccc2O3)cc1 [Compound 440]
34 | < 16 | N=C(N)NCCCNC1CCC(n2cc3c(nc2=O)Nc2cc(C(=O)NCCN4CCNCC4)ccc2O3)CC1 (stereo not shown) [Compound 741]
35 | > 16 | NCCOc1cccc2c1Nc1nc(=O)n([C@H]3CC[C@H](CN)CC3)cc1O2 [Compound 1427]
36 | < 16 | NCCCN(CCCN)C1CCC(n2cc3c(nc2=O)Nc2cc(C4CCNCC4)ccc2O3)CC1 (stereo not shown) [Compound 1244]
37 | > 16 | NCCCNCc1ccc(-c2cn3c(=O)cc(Cc4ccc5c(c4)OCO5)[nH]c3nc2=O)cc1 [Compound 380]
38 | < 16 | NCCCNC1CCC(n2cc3c(nc2=O)Nc2cc(C(=O)NCCCN4CCNCC4)ccc2O3)CC1 (stereo not shown) [Compound 731]
39 | > 16 | N[C@H]1CCCN(CCNCc2ccc3c(c2)Nc2nc(=O)n(C4CCCNCC4)cc2O3)C1 (stereo partly shown) [Compound 921]
40 | > 16 | O=c1nc2c(cn1C1CCC(NCCCc3cnn[nH]3)CC1)Oc1ccc(C3CCNCC3)cc1N2 (stereo not shown) [Compound 1212]
41 | < 16 | N=C(N)NCCCNC1CCC(n2cc3c(nc2=O)Nc2cc(C4CCNCC4)ccc2O3)CC1 (stereo not shown) [Compound 993]
42 | > 16 | N=C(N)NCCCN1CCC(n2cc3c(nc2=O)Nc2cc(-c4ccc(C(F)(F)F)nc4)ccc2O3)CC1 [Compound 690]
43 | > 16 | N=C(N)NCCCN1CCC(n2cc3c(nc2=O)Nc2cc(C4CCN(C(=O)C(N)CO)CC4)ccc2O3)CC1 (stereo not shown) [Compound 718]
44 | > 16 | NCCCNCc1ccc(-c2cn3c(=O)cc(Cc4ccc(C(F)(F)F)cc4)[nH]c3nc2=O)cc1 [Compound 367]

Row | MIC [µg/mL] | Compound
45 | > 16 | NCCCNCc1ccc(-n2cc3c(nc2=O)Nc2cc(Br)ccc2O3)cc1 [Compound 396]
46 | > 16 | NC[C@H]1CC[C@H](n2cc3c(nc2=O)Nc2c(OCCNC(N)=O)cccc2O3)CC1 [Compound 4001c]
47 | > 16 | O=C(NCCCN1CCNCC1)c1ccc2c(c1)Nc1nc(=O)n(C3CCCNCC3)cc1O2 (stereo not shown) [Compound 890]
48 | > 16 | NCCS(=O)(=O)NC1CCC(n2cc3c(nc2=O)Nc2cc(C4CCNCC4)ccc2O3)CC1 (stereo not shown) [Compound 1147]
49 | < 16 | N=C(N)NCCCNC1CCC(n2cc3c(nc2=O)Nc2cc(C4=CCNCC4)ccc2O3)CC1 (stereo not shown) [Compound 938]
50 | < 16 | N=C(N)NCCCNC1CCC(n2cc3c(nc2=O)Nc2cc(C(=O)NCCCN4CCNCC4)ccc2O3)CC1 (stereo not shown) [Compound 732]
51 | > 16 | NCCCN1CCN(C(=O)Cn2cc3c(nc2=O)Nc2ccccc2O3)CC1 [Compound 392]
52 | > 16 | N=C(N)NCCCN1CCC(n2cc3c(nc2=O)Nc2cc(C4CCN(S(=O)(=O)C5CC5)CC4)ccc2O3)CC1 [Compound 694]
53 | > 16 | NCCCNCc1ccc(-n2cc3c(nc2=O)Nc2ccc(C#Cc4ccc(F)cc4)cc2O3)cc1 [Compound 460]
54 | > 16 | CN(C)CC(=O)N1CCC(c2ccc3c(c2)Nc2nc(=O)n(C4CCN(CCCNC(=N)N)CC4)cc2O3)CC1 [Compound 691]
55 | > 16 | N=C(N)NCCCNC1CCC(n2cc3c(nc2=O)Nc2cc(-c4ccc(C(F)(F)F)nc4)ccc2O3)CC1 (stereo not shown) [Compound 671]
56 | > 16 | NCCCCCN1CCCC(n2cc3c(nc2=O)Nc2ccccc2O3)CC1 (stereo not shown) [Compound 544]
57 | > 16 | NCCCCN1CCCC(n2cc3c(nc2=O)Nc2ccccc2O3)CC1 (stereo not shown) [Compound 604]
58 | > 16 | O=c1nc2c(cn1C1CCCNCC1)Oc1ccc(CNCCCN3CCNCC3)cc1N2 (stereo not shown) [Compound 920]
59 | > 16 | NCCCN1CCCC(n2cc3c(nc2=O)Nc2cc(C(=O)N4CCC[C@H](N)C4)ccc2O3)CC1 (stereo partly shown) [Compound 870]
60 | > 16 | N=C(N)NCCCN1CCCC(n2cc3c(nc2=O)Nc2cc(C(=O)NCCCN4CCOCC4)ccc2O3)CC1 (stereo not shown) [Compound 658]
61 | > 16 | N=C(N)NCCCN1CCC(n2cc3c(nc2=O)Nc2cc(C4CCN(C(=O)Nc5cc(F)c(F)cc5F)CC4)ccc2O3)CC1 [Compound 782]
62 | > 16 | N=C(N)NCCCN1CCC(n2cc3c(nc2=O)Nc2cc(C(=O)Nc4ccccc4OC(F)(F)F)ccc2O3)CC1 [Compound 675]
63 | > 16 | O=c1nc2c(cn1C1CCCNCC1)Oc1ccccc1N2 (stereo not shown) [Compound 595]
64 | > 16 | NCCCN1CCC(n2cc3c(nc2=O)N[C@@H]2CCCC[C@H]2O3)CC1 [Compound 929]
65 | > 16 | N[C@@H]1CCCN(C(=O)c2ccc3c(c2)Nc2nc(=O)n(C4CCCNCC4)cc2O3)C1 (stereo partly shown) [Compound 908]
66 | > 16 | Cc1ccc(CCCNC2CCC(n3cc4c(nc3=O)Nc3cc(C5CCNCC5)ccc3O4)CC2)o1 (stereo not shown) [Compound 1197]

Row | Compound | MIC [µg/mL]
67 | NCCCN1CC=C(c2cnc3[nH]c(-c4ccc(F)cc4)cn3c2=O)CC1 [Compound 569] | > 16
